Assay results reported in patent publication US8106214B2, “2-imino-4-(thio) oxo-5-polycyclovinylazolines for use as PI3 kinase inhibitors” (Merck Serono SA, priority 2003, dated 2012).
Like-named read-outs stand apart in the source and are kept apart here.

Experiments:
[1] = test system: C5a-mediated AKT phosphorylation in Raw 264-7 macrophages; assay: Cell based ELISA: Akt/PKB phosphorylation in macrophages after C5a stimulation; settings: Mus musculus, RAW264.7, 5 min; compound at 10 μM; Raw 264-7 macrophages stimulated with 50 nM C5a for 5 minutes; read-out: percentage of inhibition of C5a-mediated AKT phosphorylation
Protocol: b) Cell Based ELISA to Monitor PI3K Inhibition:
Measurement of Akt/PKB phosphorylation in macrophages after stimulation with human recombinant Complement 5a (C5a) from Sigma (C5788): Raw 264: Raw 264-7 macrophages (cultured in DMEM-F12 medium containing 10% Fetal Calf serum and antibiotics) are plated at 20,000 cells/well in a 96 MTP 24 h before cell stimulation. Previous to the stimulation with 50 nM of Complement 5a during 5 minutes, Cells are serum starved for 2 h, and pre-treated with inhibitors for 20 minutes. After stimulation cells are fixed in 4% formaldehyde for 20 minutes and washed 3 times in PBS containing 1% Triton X-100 (PBS/Triton). Endogenous peroxidase is blocked by a 20 minutes incubation in 0.6% H2O2 and 0.1% Sodium Azide in PBS/Triton and washed 3 times in PBS/Triton. Cells are then blocked by 60 minutes incubation with 10% foetal calf serum in PBS/Triton. Next, phosphorylated AKWPKB is detected by an overnight incubation at 4° C. with first antibody (anti phospho Serine 473 Akt IHC, Cell Signalling) diluted 800-fold in PBS/Triton, containing 5% bovine serum albumin (BSA). […] The reaction is stopped by addition of 50 μl of 1 M SO4H2 and absorbance is read at 450 nm. […]

[2] = molecular target: Human recombinant GST-PI3Kγ (Homo sapiens, UniProt P48736); assay: High Throughput PI3K Lipid Kinase Assay (SPA, neomycin-coated beads); format: biochemical
Protocol: a) High Throughput PI3K Lipid Kinase Assay (Binding Assay):
The assay combines the scintillation proximity assay technology (SPA, Amersham) with the capacity of neomycin (a polycationic antibiotic) to bind phospholipids with high affinity and specificity. The Scintillation Proximity Assay is based on the properties of weakly emitting isotopes (such as ^3H, ^125I, ^33P). Coating SPA beads with neomycin allows the detection of phosphorylated lipid substrates after incubation with recombinant PI3K and radioactive ATP in the same well, by capturing the radioactive phospholipids to the SPA beads through their specific binding to neomycin.
To a 384 wells MTP containing 5 μl of the test compound of Formula (D) (solubilized in 6% DMSO; to yield a concentration of 100, 30, 10, 3, 1, 0.3, 0.1, 0.03, 0.01, 0.001 μM of the test compound), the following assay components are added. 1) 5 μl (58 ng) of Human recombinant GST-PI3Kγ (in Hepes 40 mM, pH 7.4, DTT 1 mM and ethylenglycol 5%) 2) 10 μl of lipid micelles and 3) 10 μl of Kinase buffer ([^33P]γ-ATP 45 μM/60 nCi, MgCl2 30 mM, DTT 1 mM, β-Glycerophosphate 1 mM, Na3VO4 100 μM, Na Cholate 0.3%, in Hepes 40 mM, pH 7.4). After incubation at room temperature for 180 minutes, with gentle agitation, the reaction is stopped by addition of 60 μl of a solution containing 100 μg of neomycin-coated PVT SPA beads in PBS containing ATP 10 mM and EDTA 5 mM. The assay is further incubated at room temperature for 60 minutes with gentle agitation to allow binding of phospholipids to neomycin-SPA beads. After precipitation of the neomycin-coated PVT SPA beads for 5 minutes at 1500×g, radioactive PtdIns(3)P is quantified by scintillation counting in a Wallac MicroBeta™ plate counter.
The values indicated in respect of PI3Kγ refer to the IC50 (μM), i.e. the amount necessary to achieve 50% inhibition of said target. Said values show a considerable potency of the 2-imino-azolinone-vinyl fused-benzene compounds with regard to PI3Kγ.

Class I PI3-kinases = settings: cited from earlier work

Sequence of Human recombinant GST-PI3Kγ (P48736 whole entry): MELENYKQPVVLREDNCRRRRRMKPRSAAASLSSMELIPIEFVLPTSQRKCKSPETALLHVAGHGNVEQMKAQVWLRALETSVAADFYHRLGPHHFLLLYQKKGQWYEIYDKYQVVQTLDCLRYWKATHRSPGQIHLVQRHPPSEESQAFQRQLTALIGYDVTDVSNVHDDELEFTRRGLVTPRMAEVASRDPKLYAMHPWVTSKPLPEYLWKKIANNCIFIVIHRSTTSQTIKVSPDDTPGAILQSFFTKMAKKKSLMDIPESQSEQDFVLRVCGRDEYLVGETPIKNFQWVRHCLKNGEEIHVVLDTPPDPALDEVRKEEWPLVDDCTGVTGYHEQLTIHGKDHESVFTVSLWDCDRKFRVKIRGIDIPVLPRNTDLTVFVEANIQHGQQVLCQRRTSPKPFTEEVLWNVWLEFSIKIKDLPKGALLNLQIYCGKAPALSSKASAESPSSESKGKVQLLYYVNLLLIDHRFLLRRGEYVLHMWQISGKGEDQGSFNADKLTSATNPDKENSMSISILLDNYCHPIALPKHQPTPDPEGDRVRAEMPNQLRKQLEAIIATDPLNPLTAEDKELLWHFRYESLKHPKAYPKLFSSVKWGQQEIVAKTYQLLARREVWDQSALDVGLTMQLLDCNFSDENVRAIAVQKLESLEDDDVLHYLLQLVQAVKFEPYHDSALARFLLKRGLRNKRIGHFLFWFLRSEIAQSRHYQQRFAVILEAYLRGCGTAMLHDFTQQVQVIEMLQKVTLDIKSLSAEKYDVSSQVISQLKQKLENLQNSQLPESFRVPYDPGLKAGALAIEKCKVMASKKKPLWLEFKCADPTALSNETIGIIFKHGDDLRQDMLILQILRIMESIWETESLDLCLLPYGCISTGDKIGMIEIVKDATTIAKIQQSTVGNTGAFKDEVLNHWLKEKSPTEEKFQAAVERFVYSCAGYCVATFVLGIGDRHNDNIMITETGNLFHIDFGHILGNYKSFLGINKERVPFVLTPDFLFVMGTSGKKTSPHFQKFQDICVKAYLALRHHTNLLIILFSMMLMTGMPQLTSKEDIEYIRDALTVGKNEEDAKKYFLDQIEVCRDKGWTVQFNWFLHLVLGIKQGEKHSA

IC50 [2] [nM] | Compound | other results
< 1000 | N#CN=C1NC(=O)/C(=C/c2ccc3nccnc3c2)S1 [Example 21, 4-Oxo-5-quinoxalin-6-ylmethylene-thiazolidin-2-ylidene-cyanamide] | 
< 1500 | O=C1NC(=NCc2ccccc2)S/C1=C\c1ccc2c(c1)OCO2 [Example 22, 5-Benzo[1,3]dioxol-5-ylmethylene-2-benzylimino-thiazolidin-4-one] | 
< 1000 | CN=C1NC(=O)/C(=C/c2ccc3ncnc(N(C)C)c3c2)S1 [Example 26, 5-(4-Dimethylamino-quinazolin-6-ylmethylene)-2-methylimino-thiazolidin-4-one] | 

Further lines, the compound ahead of its results:

Compound | IC50 [2] [nM] | other results
O=C1N/C(=N\S(=O)(=O)c2ccccc2)S/C1=C\c1ccc2c(c1)OCO2 [Example 8, N-(5-Benzo[1,3]dioxol-5-ylmethylene-4-oxo-thiazolidin-2-ylidene)-benzenesulfonamide] |  | inhibition at 10 µM [1]: 100%
CS(=O)(=O)/N=C1\NC(=O)/C(=C/c2ccc3c(c2)OCO3)S1 [Example 10, N-(5-Benzo[1,3]dioxol-5-ylmethylene-4-oxo-thiazolidin-2-ylidene)-methanesulfonamide] |  | inhibition at 10 µM [1]: 80%
COC(=O)c1sccc1S(=O)(=O)N=C1NC(=O)/C(=C/c2ccc3ncccc3c2)S1 [Example 16, 3-(4-Oxo-5-quinolin-6-ylmethylene-thiazolidin-2-ylidenesulfamoyl)-thiophene-2-carboxylic acid methyl ester] | < 1000 | 
CO/N=C1\NC(=O)/C(=C/c2ccc3c(c2)OCO3)S1 [Example 20, 5-Benzo[1,3]dioxol-5-ylmethylene-thiazolidine-2,4-dione 2-(O-methyl-oxime)] | < 1000 | 
O=c1cc(N2CCOCC2)oc2c(-c3ccccc3)cccc12 [LY294002] |  | IC50 (Class I PI3-kinases; Fruman et al. 1998, read-out: IC50 values against each of these PI3-kinases): 15000 to 20000 nM
wortmannin |  | IC50 (Class I PI3-kinases; read-out: IC50 values against each of the various Class I PI3-kinases): 1 to 10 nM
